Measured values from paper PMC5082338, “Different Culture Metabolites of the Red Sea Fungus Fusarium equiseti Optimize the Inhibition of Hepatitis C Virus NS3/4A Protease (HCV PR)” (Marine Drugs, 2016).
“And” between values parts separate entries of the source, which are not always exact repeats. Identical values can stand only once. Like-named read-outs stand apart in the source and are kept apart here. Peptide text beside a SMILES is read from it.

B1: T-I: soybean trypsin-chymotrypsin inhibitor (positive control for trypsin) (protein)
chain: DDESSKPCCDQCACTKSNPPQCRCSDMRLNSCHSACKSCICALSYPAQCFCVDITDFCYEPCKPSEDDKEN
modifications: mature limits and check

Tests used:
Staphylococcus aureus = experiment: Antimicrobial activity, inhibition zone; type: cell-based; settings: for zone of inhibition: read-out: Inhibition zone, Staphylococcus aureus
Excerpt: Table 1 Antimicrobial potential of the culture extracts and isolated compounds from F. equiseti. | column: Gram-Positive Bacteria / Staphylococcus aureus

Bacillus subtilis = experiment: Antimicrobial activity, inhibition zone; type: cell-based
Bacillus megaterium = experiment: Antimicrobial activity, inhibition zone; type: cell-based; settings: Priestia megaterium; for zone of inhibition: read-out: Inhibition zone, Bacillus megaterium
Excerpt: Table 1 Antimicrobial potential of the culture extracts and isolated compounds from F. equiseti. | column: Gram-Positive Bacteria / Bacillus megaterium

Candida albicans = experiment: Antimicrobial activity, inhibition zone; type: cell-based; settings: oxytetracycline control 30 μg
[1] = target: T1, human recombinant Trypsin (Homo sapiens, UniProt P07477); experiment: Green protease assay (trypsin inhibitory activity); type: biochemical; settings: 37 °C, 30 min
T1 construct: purchased AnaSpec Inc., San Jose, CA, USA AS-71124 (Green protease Assay Kit; no catalogue number for trypsin itself)
Protocol: (§1) Chymotrypsin inhibitor (Soybean trypsin) was purchased from Sigma Aldrich Co. (St. Louis, MO, USA), and Becton Dickinson Falcon™ (Tokyo, Japan). Microtest 384-well 120 μL black assay plates, no lid, non-sterile, were purchased from Becton Dickinson Inc, Franklin Lakes, NJ, USA. Culture media: Czapek agar, bacteriological peptone, malt extract, yeast extract powder, nutrient agar and potato dextrose broth were procured from Lab M, Bury, UK; Glucose, (Acros Organics, Geel, Belgium), K2HPO4 (Laboratory Reagent, Mumbai, India), MgSO4 (Oxford Laboratory Reagent, Mumbai, India), agar (Sisco Research Laboratories Pvt. Ltd., Mumbai, India).
Then 17.5 μL of assay buffer and 2.5 μL of trypsin (0.1 U/μL) were added and the plate was briefly agitated. […] The positive control was the soybean trypsin-chymotrypsin inhibitor. Inhibition was calculated as above for HCV PR assay.

HCV NS3/4A protease = HCV NS3/4A protease (Hepatitis C virus genotype 1b (strain HC-J4), UniProt O92972); experiment: HCV protease inhibitory activity (SensoLyte 520 HCV protease assay kit, fluorimetric); type: biochemical; settings: for IC50: recHCV PR, 37 °C, 30 min; for Inhibition of HCV PR (in words): compared to other constituents
HCV NS3/4A protease, sequence (O92972 1027-1207, other chains not shown): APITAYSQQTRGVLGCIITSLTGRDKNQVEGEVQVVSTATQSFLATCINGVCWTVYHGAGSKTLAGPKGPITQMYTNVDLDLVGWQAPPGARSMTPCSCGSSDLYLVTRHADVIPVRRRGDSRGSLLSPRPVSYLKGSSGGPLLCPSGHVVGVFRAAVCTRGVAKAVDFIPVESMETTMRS
Excerpt: HCV NS3 is considered as a serine protease, its active site contains serine 139 amino acid residues, which attack the substrate by forming a reversible covalent bond with its amino acid residues. To be activated, the HCV NS3 has to be coupled with an activating protein named (4A), and is therefore given the name HCV NS3/4A, which is active only in its heterodimer form. The culture extracts of the endophytic fungus F. equiseti and their isolated compounds were screened for inhibition of HCV protease using the hepatitis virus C NS3 protease inhibitor 2 as a positive control. Moreover, the selectivity of the active metabolites toward HCV NS3/4A protease (viral protease) and not human serine proteases such as trypsin and chymotrypsin has been confirmed through investigating the inhibitory activity of these extracts and/or their isolated chemical constituents on human recombinant Trypsin.
as §1, with “Sensolyte™ 520 HCV Protease assay kit Fluorimetric (cat#AS-71145), HCV NS3/4A protease and Sensolyte™, Green protease Assay Kit Fluorimetric (cat#AS-71124), and Hepatitis Virus C NS3 protease inhibitor 2 (cat#AS-25346) were purchased from AnaSpec Inc., San Jose, CA, USA. Chymotrypsin” for “Chymotrypsin”
Samples of 2 μL of culture broth fungus extracts and isolated compounds dissolved in dimethyl sulfoxide (DMSO) were placed in each well of a 384-well microplate, then 8 μL of recHCV PR (0.5 μg/mL) were added, and the plate was briefly agitated. Finally, 10 μL of the freshly prepared substrate [Ac-Asp-Glu-Dap (QXLTM520)-Glu-Glu-Abu-COO-Ala-Ser-Cys(5-FAMsp)-NH2] were added with sequential rotational shaking. The reaction mixture was incubated at 37 °C for 30 min. The fluorimetric analyses were performed on an automated TECAN GENios plate reader (Männedorf, Switzerland) with excitation and emission wavelengths at 485 and 520 nm, respectively. Each sample was tested in triplicate. HCV PR inhibition (%) was calculated using the following equation: % Inhibition = (Fsubstrate − Ftestsample) × 100/Fsubstrate where Fsubstrate is the fluorescence of the enzyme and substrate only, and Ftestsample is the fluorescence of the assay mixture with the added sample.

[2] = Bacillus subtilis, oxytetracycline control 30 μg
[3] = read-out: IC50 HCV Protease Inhibitory Activity

Molecule | zone of inhibition (Staphylococcus aureus; oxytetracycline control 30 μg) [mm] | zone of inhibition (Bacillus subtilis; [2]) [mm] | zone of inhibition (Bacillus megaterium; oxytetracycline control 30 μg) [mm] | zone of inhibition (Candida albicans) [mm] | IC50 [1] [µM] | IC50 (HCV NS3/4A protease; [3]) | further results
CN(C)[C@@H]1C(O)=C(C(N)=O)C(=O)[C@@]2(O)C(O)=C3C(=O)c4c(O)cccc4[C@@](C)(O)[C@H]3[C@H](O)[C@@H]12 [Oxytetracycline, reference compound] | 17 | 18 | 20 | – | – | – | –
CC(C=CC=C(C)C(O)C(C)C1CC(O)C(C)=CC=CC(C)C2CC(CC=CC(=O)O1)CC(=O)O2)=Cc1coc(C)n1 (stereo not shown) [compound 6, 17-demethyl-2,11-dideoxy-rhizoxin] | – | – | – | 19 | 145 ± 3.66 | – | zone of inhibition (Staphylococcus aureus): 12 mm; zone of inhibition (Bacillus megaterium): 8 mm; IC50 (HCV NS3/4A protease; IC50 HCV Protease Inhibitory Activity): 34.4 µM
CC(C)CC1NC(=O)C(C)NC1=O [compound 1, cyclo-L-Ala-L-Leu] | – | – | – | – | – | 58.3 ± 3.51 µM | zone of inhibition at 30 µg/disc (Candida albicans): 13 mm; zone of inhibition at 30 µg/disc (Bacillus megaterium; oxytetracycline control 30 μg): 12 mm; Inhibition of HCV PR (in words) (HCV NS3/4A protease): inactive
O=C1N[C@H](Cc2ccc(O)cc2)C(=O)N2CCC[C@H]12 [compound 15, cyclo(L-Tyr-L-Pro)] | – | – | – | – | 37.9 ± 3.8 | 18.2 ± 1.7 µM | zone of inhibition at 30 µg/disc (Staphylococcus aureus; oxytetracycline control 30 μg): 11 mm; zone of inhibition at 30 µg/disc (Candida albicans): 13 mm; zone of inhibition at 30 µg/disc (Bacillus megaterium; oxytetracycline control 30 μg): 8 mm
COc1cc(O)c2c(=O)c3c(C)cc(O)cc3oc2c1 [compound 12, griseoxanthone C] | – | – | – | – | 51.3 | 19.8 µM and 19.9 µM | zone of inhibition at 30 µg/disc (Bacillus subtilis; [2]): 13 mm; zone of inhibition at 30 µg/disc (Bacillus megaterium; oxytetracycline control 30 μg): 10 mm
CC(C)[C@@H](C)CC[C@@H](C)C1CCC2C3=CC=C4C[C@@H](O)CC[C@]4(C)C3CC[C@@]21C (stereo partly drawn) [compound 8, ergostra-5,7-dien-3β-ol] | – | – | – | – | – | 77.1 ± 4.55 µM | Inhibition of HCV PR (in words) (HCV NS3/4A protease): inactive
Nc1ncnc2c1ncn2C1OC(CO)C(O)C1O (stereo not shown) [compound 18, ara-A] | 10 | 12 | 12 | – | 138 ± 2.49 | 24.5 µM | –
Cc1c[nH]c(=O)[nH]c1=O [compound 4, thymine] | – | – | – | – | – | 51.8 ± 2.49 µM | Inhibition of HCV PR (in words) (HCV NS3/4A protease): inactive
CC(C)CC1NC(=O)C2CCCN2C(=O)C(Cc2ccccc2)NC(=O)C2CCCN2C1=O (stereo not drawn) [compound 5, cyclo[Phenylalanyl-Pro-Leu-Pro]] (cyclo(FPLP); configuration not given here) | 9 | – | 10 | 12 | 226 ± 4.26 | 29.4 µM and 29.5 µM | –
Nc1ncnc2c1ncn2[C@@H]1O[C@H](CO)C[C@H]1O [compound 17, cordycepin] | 16 | 9 | 11 | 14 | > 1000 | 22.3 µM and 22.4 µM | –
O=C1c2cc(O)cc(O)c2C(=O)c2c(O)cc(CO)cc21 [compound 14, ω-hydroxyemodin] | 12 | 9 | 17 | 18 | 48.5 | 10.7 µM | –
CCO[C@@H]1O[C@H](CO)[C@@H](O)[C@H](O)[C@H]1O [compound 19, ethyl-O-β-glucoside] | – | – | – | – | – | > 1000 µM | –
CC1=C(O)C(=O)C(Cl)=C(O)C1=O [compound 11, 5-Chloro-3,6-dihydroxy-2-methyl-1,4-benzoquinone] | – | – | – | – | 294.8 ± 2.87 | 35.1 µM | –
CC(C)[C@@H]1NC(=O)[C@@H]2CCCN2C1=O [compound 2, cyclo(L-Pro-L-Val)] | – | 18 | 11 | 9 | 54.2 ± 1.88 | 23.2 µM and 23.3 µM | Sensitivity of B. subtilis (in words) (Bacillus subtilis): highly sensitive
CC[C@@H](CC[C@@H](C)C1CCC2C3CC=C4C[C@@H](O[C@@H]5O[C@H](CO)[C@@H](O)[C@H](O)[C@H]5O)CC[C@]4(C)C3CC[C@@]21C)C(C)C (stereo partly drawn) [compound 9, β-sitosterol 3-O-β-glucoside] | 9 | 11 | 14 | 10 | – | 76.6 ± 3.78 µM | Inhibition of HCV PR (in words) (HCV NS3/4A protease): inactive
Cc1cc(O)c2c(c1)C(=O)c1cccc(O)c1C2=O [compound 13, chrysophanol] | 15 | – | 10 | 11 | – | > 1000 µM | –
OCc1ccc(-c2nccc3c2[nH]c2ccccc23)o1 [compound 16, perlolyrin] | 14 | 8 | 9 | 10 | > 1000 | 37.8 µM and 37.9 µM | –
B1 | – | – | – | – | 0.5 | – | –
